Assay results from patent US5968526A, “T cell epitopes of the major allergens from Dermatophagoides (house dust mite)” (Immulogic Pharamaceutical Corporation, priority 1995, dated 1999).

What was measured:
[1] = system: T cell lines primed in vitro to Der p I; test: secondary proliferation of Der p I-primed T cell lines (Examples V, VII, XI); format: cell-based, human; details: for T cell response to selected Der p I peptides: 33 positive experiments, FIG. 13; for positivity index (P.I.): mean S.I. × percent responders, 33 patients
Description: 10^7 PBMC from individual 543 were cultured in 10 ml RPMI-1640 containing 5% pooled human AB serum and supplemented with glutamine, penicillin, streptomycin and HEPES buffer in the presence of 20 μg/ml purified native Der p I/ml at 37° C. for 7 days. Viable cells were then purified by Ficoll-Hypaque centrifugation and cultured for 2 additional weeks in RPMI-1640/5% AB serum containing 5 units recombinant human IL-2/ml and 5 units recombinant human IL-4/ml. The resting T cells were then tested in a secondary proliferation assay to assess T cell responses to various house dust mite proteins and peptides. For assay, 2×10^4 resting T cells were cultured in 200 μl of RPMI-1640/5% AB serum for 3 days at 37° C. in the presence of 2×10^4 autologous Epstein-Barr virus transformed B cells (20,000 Rads) as antigen presenting cells with various concentrations of purified native Der p I or synthetic Der p I peptides. Each well then received 1 μCi tritiated thymidine for 16 hours. The counts incorporated were collected onto glass fiber filters and processed for liquid scintillation counting. Medium alone, acting as negative control, contained no allergen or peptide. The results of this experiment indicate that this particular patient responds with an S.I. of at least 2.0 to several peptides derived from the Der p I protein, including DP I-1, DP I-2, DP I-4, DP I-11, DP I-5, DP I-13, DP I-15, DP I-6.1, DP I-8, DP I-9, DP I-16, DP I-10 and DP I-17 (data not shown).
The above procedure was followed with a number of other house dust mite allergic individuals except a) in individual cases, the length of time of cultivation with IL-2 and IL-4 varied; b) in individual cases, the T cells were primed with either purified native (N) or recombinant (R) Der p I protein at either 20 μg/ml or 10 μg/ml; and c) in individual cases, x-irradiated (3500 Rads) autologous PBMC were used as antigen presenting cells in the secondary proliferation assay.
Individual results were considered positive and used if the individual responded to the Der p I protein and at least one peptide derived from Der p I at an S.I. of 2.0 or greater. The resting T cell lines primed with recombinant or native Der p I-stimulated PBMC were tested for reactivity to synthetic Der p I peptides. The maximum response for each peptide in a titration of the antigen is expressed as the T cell stimulation index (S.I.). The S.I. is the counts-per-minute (CPM) incorporated by cells in response to the peptide divided by the CPM incorporated by cells in medium only. […] However, only individual S.I. values greater than or equal to 2.0 (a response two-fold or greater over background), referred to herein as "positive" results, were used in calculating mean T cell stimulation indices for each peptide for the patient or group of patients tested. […] The T cell stimulation index is calculated by: [formula]
The bar represents the cumulative rank of the peptide response in the group of patients. To determine the cumulative rank, the 5 peptides with the highest S.I. in each individual were determined and assigned a numerical rank in descending order, with 5 representing the strongest response. The ranks for each peptide were then summed in the group of patients to determine the cumulative rank for the peptide. […] Given the percent positive and the mean T cell stimulation index, the positivity index (P.I.) for each peptide can be calculated.
The Der p I and Der f I proteins are very homologous (81% identity). Thus, experiments, similar to those of Example V, were carried out to determine the T cell responses of Der p I primed T cell lines when challenged with various Der p I peptides and substantially matching […].
The results of T cell studies using selected peptides derived from the Der p I, the Der f I, the Der p II and the Der f II proteins are shown in FIGS. 13-18a-d. […]

[2] = system: T cell lines primed in vitro with Der p I; test: T cell proliferation with fine map and modified Group I peptides (Example XIV); format: cell-based, human; details: FIGS. 31a-b
Description: (§1) Long term T cell lines were established by stimulation of 2×10^6 PBL/ml in bulk cultures of complete medium (RPMI-1640, 2 mM L-glutamine, 100 U/ml penicillin/streptomycin, 5×10^-5 M 2-mercaptoethanol, and 10 mM HEPES supplemented with 5% heat inactivated human AB serum) with 30 μg/ml of purified native Der p I or Der p II for 5-6 days at 37° C. in a humidified 5% CO2 incubator to select for house dust mite protein allergen reactive T cells. This amount of priming antigen was determined to be optimal for the activation of T cells from house dust mite allergic patients. Viable cells were purified by LSM centrifugation and cultured in complete medium supplemented with 5 units recombinant human IL-2/ml and 5 units recombinant human IL-4/ml for up to three weeks until the cells no longer responded to lymphokines and were considered "rested". The ability of the T cells to proliferate to selected peptides, purified Der p I or Der p II, or positive (PHA) controls or negative controls (medium only) was then assessed. For assay, 2×10^4 rested cells were restimulated in the presence of 2×10^4 autologous Epstein-Barr virus (EBV)-transformed B cells (prepared as described below) (gamma-irradiated with 25,000 RADS) or with 5×10^4 autologous PBMs (gamma-irradiated with 3500 RADS), with 2-50 μg/ml of purified native Der p I or Der p II in a volume of 200 μl complete medium in duplicate or triplicate wells in 96-well round bottom plates for 3 days. Each well then received 1 μCi tritiated thymidine for 16-20 hours. The counts incorporated were collected onto glass fiber filter mats and processed for liquid scintillation counting. […] The titrations were used to optimize the dose of peptides in T cell assays.
(§2) The maximum response in a titration of each peptide is expressed as the stimulation index (S.I.). The S.I. is the counts per minute (CPM) incorporated by cells in response to peptide, divided by the CPM incorporated by cells in medium only. […] The positive results were used in calculating mean stimulation indices for each peptide for the individual patient tested.
(§3) The above procedure was followed with 18 patients in the studies using peptides derived from Der p I and Der f I (FIGS. 31a-b), and 21 patients in the studies with Der p II peptides (FIGS. 32a-b). Individual patient results were used in calculating the mean S.I. for each peptide if the patient responded to the Der p I or Der p II protein at an S.I. of 2.0 or greater and the patient responded to at least one peptide derived from a house dust mite allergen at an S.I. f 2.0 or greater. A summary of positive experiments from the patients tested is shown in FIGS. 32a and 32b and FIGS. 33a and 33b. The bars represent the positivity index. […] In parenthesis above each bar are the mean stimulation indices for each peptide or protein for the group of patients tested.
(§4) Autologous EBV-transformed cell lines were γ-irradiated with 25,000 Rad and used as antigen presenting cells in secondary proliferation assays and secondary bulk stimulations. These EBV-transformed cell lines were made by incubating 5×10^6 PBL with 1 ml of B-59/8 Marmoset cell line (ATCC CRL1612, American Type Culture Collection, Rockville, Md.) conditioned medium in the presence of 1 μg/ml phorbol 12-myristate 13-acetate (PMA) at 37° C. for 60 minutes in 12×75 mm polypropylene round-bottom Falcon snap cap tubes (Becton Dickinson Labware, Lincoln Park, N.J.). These cells were then diluted to 1.25×10^6 cells/ml in RPMI-1640 as described above except supplemented with 10% heat-inactivated fetal bovine serum and cultured in 200 μl aliquots in flat bottom culture plates until visible colonies were detected. They were then transferred to larger wells until the cell lines were established.

[3] = system: T cell lines primed in vitro with Der p II; test: T cell proliferation with fine map and modified Group II peptides (Example XIV); format: cell-based, human; details: for positive T cell responses, modified peptides: 21 T cell lines, Der p II primed, FIG. 32a; for T cell response, Group II peptides: FIGS. 32a-b
Description: as §1, §2, §3, §4

human IgE = test: direct binding ELISA of IgE to mite allergen proteins and peptides; details: plasma of 19 mite-allergic patients and pool of 18; Example XV
Description: The coating antigens were removed and the wells are blocked with 0.5% gelatin in PBS, 300 μl/well for 2 hours at room temperature. Pooled human plasma (a mix of plasma samples from 20 patients that were skin test positive for commerical mite extract) was serially diluted with PBS-Tween 20 (PBS with 0.05% nonionic detergent Tween-20 Sigma, St. Louis, Mo.) and 100 μl/well a.backslash.was added and incubated overnight at 4° C. (plasma dilutions were tested in duplicate). The second antibody (biotinylated goat anti-Human IgE, 1:1000, Kirkegaard & Perry Laboratories Inc, Gaithersburg, Md.), was added at 100 μl/well for one hour at room temperature. This solution was removed and streptavidin-HRPO, 1:10000, (Southern Biotechnology Associates, Inc., Birmingham, Ala.) was then added at 100 μl/well for one hour at room temperature (all wells are washed three times with PBS-Tween between each incubation step). TMB Membrane Peroxidase Substrate system (Kirkegaard & Perry Laboratories) was freshly miced, and added at […]. The color was allowed to develop for 2-5 minutes. The reaction was stopped by the addition of […] of 1M phosphoric acid. Plates were read on a Microplate IL310 Autoreader (Biotech Instruments, Winooski, Vt.) with a 450 nm filter. The absorbance levels of duplicate wells were averaged. The order of coating antigens listed vertically in these figure legends corresponds in orDer from left to right to the coating antigens listed for each histogram.
The antigen preparation that was used as a positive control was a mixture of the four major biochemically purified mite allergens (term PMA for Purified Mite Allergen); Der f I, Der f II, Der p I and Der p II. The stock was generated at a concentration of 100 μgs of each protein per millimeter or 400 μgs total protein/ml. This preparation was used on each coated ELISA plate.

| IgE binding (ELISA), modified peptides (human IgE) | Substance | T cell response, Group I peptides [2] | positive T cell responses, modified peptides [3] | T cell response, Group II peptides [3] | further results |
| --- | --- | --- | --- | --- | --- |
| – | DF I-22.4: Der f I peptide (VAATESAYLAYRNTSLDLSEQELVDCASQ) | positive responses | – | – | T cell response to selected Der f I peptides ([1]; Der p I primed, 30 positive experiments, FIG. 15a): respond significantly |
| – | DP I-11.1: Der p I peptide, native sequence (HRNQSLDLAEQELVDCASQHGC) | positive response | – | – | difference in mean S.I. or percentage of positive responses, original vs additional (native sequence) peptides ([1]; DP I-11/12 vs DP I-11.1/12.1): no significant difference |
| – | DP I-21.1: Der p I peptide (TNACSINGNAPAEIDLRQMRTVTPIRMQ) | positive response | – | – | T cell response to selected Der p I peptides [1]: respond significantly; positivity index (P.I.) [1]: at least 150 |
| – | DP I-22.4: Der p I peptide (VAATESAYLAHRNQSLDLAEQELVDCASQ) | positive responses | – | – | – |
| – | DP I-23.1: Der p I peptide (EYIQHNGVVQESYYRYVAREQCRRPNAQ) | positive T cell studies | – | – | T cell response to selected Der p I peptides [1]: respond significantly; ranked sum of peptide responses ([1]; FIG. 15b, preferred peptides): highest ranked sum; positivity index (P.I.) [1]: at least 150 |
| – | DP I-26.1: Der p I peptide (IIGIKDLDAFRHYDGRTIIQRDNGYQ) | positive T cell studies | – | – | T cell response to selected Der p I peptides [1]: respond significantly; positivity index (P.I.) [1]: at least 150 |
| No plasma samples contained IgE | DP II-20.8: modified Der p II peptide (DQVDVKDCANHEIKKVLVPGCHGSEPK) | – | all 21 T cell lines responded positively | – | – |
| No plasma samples contained IgE | DP II-20.10: modified Der p II peptide (DQVDVKDCANHEIKKVLVPGCHGSEG) | – | all 21 T cell lines responded positively | positive T cell studies | – |
| No plasma samples contained IgE | DP II-20.11: modified Der p II peptide; printed with the same SEQ ID NO as DP II-20.9 (DQVDVKDCANHEIKKVLVPGCHGSE) | – | all 21 T cell lines responded positively | positive T cell studies | – |
| No plasma samples contained IgE | DP II-22.19: DKELEAVFEANQNTKTAKIEIKAD | – | all 21 T cell lines responded positively | positive T cell studies | – |
| No plasma samples contained IgE | DP II-22.22: DKELEAVFEANQNTKTAKIEIKK | – | all 21 T cell lines responded positively | positive T cell studies | – |
| No plasma samples contained IgE | DP II-22.23: DKELEAVFEANQNTKTAKIED | – | all 21 T cell lines responded positively | positive T cell studies | – |
| No plasma samples contained IgE | DP II-25.9: modified Der p II peptide (DKTVKVMGDDGVLACAIATHAKIRDKE) | – | all 21 T cell lines responded positively | positive T cell studies | – |
